Experimental data from patent US6407126B1 (priority 1997, dated 2002).
Where two headings read alike, the source gives them in different places.

Test system: Phytophthora infestans
Type: in vivo
Details: tomato leaves, infected next day, evaluated after 6 days
[1] = 50 ppm active ingredient in the spray liquor
[2] = 100 ppm active ingredient in the spray liquor

| Compound | Efficacy in % of the untreated control (25 ppm active ingredient in the spray liquor) | Efficacy in % of the untreated control [1] | Efficacy in % of the untreated control [2] | Efficacy in % of the untreated control (12.5 ppm active ingredient in the spray liquor) |
| --- | --- | --- | --- | --- |
| CC1(c2ccc(Oc3ccccc3)cc2)OC(=O)N(Nc2ccccc2)C1=O (stereo not drawn) [Compound VI] | 70% | 70% | 80% | – |
| O=C(Nc1ccccc1-c1ccc(F)cc1)c1cccnc1Cl [Compound I.1] | – | 0% | 0% | – |
| manganese ethylenebis(dithiocarbamate) (zinc complex) [Compound IIa] | – | – | – | 70% |
